This note sets out measurements from patent US3943123A, “Novel beta-lactams and novel process” (Koninklijke Nederlandsche Gist-En Spiritusfabriek N.V., priority 1974, dated 1976).

Each structure is given as a SMILES string. ≈ marks a conversion by molar mass, not a printed value.

The nature of data set [1]: solubility in various organic solvents. It counts as physicochemical. The settings on record: cis isomer, in words.
For the next data set, the system named is test organisms. In words: anti-bacterial activity as determined by standard tests. The settings on record: in words. The data set is classed as cell-based. From the text: Many of the β-lactams described here have anti-bacterial activity as determined by standards tests. […] The novel β-lactams of the invention are also useful intermediates for the preparation of complex substituted amino acids which can then be polymerized to form polymers. The amino acids are formed by 1,2-cleavage of the β-lactams with an alkali metal hydroxide or alkoxide such as sodium methoxide in a lower alkanol such as methanol to form the corresponding alkali metal salt of the resulting 3-aminopropionic acid which can be acidified to form the corresponding free amino acid.
(§1) A stock solution of the test compounds at a concentration of […] in 0.05 molar phosphate buffer solution at a pH of 6.5 was prepared and two-fold dilutions were made with sterile buffer. 1 cc quantities of each dilution were then incorporated into 19 cc of brain heart infusion agar in sterile petri dishes. The hardened surface was then inoculated with the test organisms and it was then incubated for 18 hours at 37°C. The minimum inhibitory concentration (MIC) which is the least amount of compound completely inhibiting the test organism is determined in mg/cc.

Data set [2] relates to Bacillus Subtilis ATCC 6633. Put plainly: MIC by two-fold agar dilution (brain heart infusion agar), Bacillus subtilis. It counts as cell-based. The settings on record: ATCC6633, 18 hours at 37°C, pH 6.5 buffer, read-out: minimum inhibitory concentration (MIC). As to the method:
as §1

For data set [3], the system named is Staphylococcus Aureus A 321. In words: MIC by two-fold agar dilution (brain heart infusion agar), Staphylococcus aureus A 321. The data set is classed as cell-based. The settings on record: strain A 321, 18 hours at 37°C, pH 6.5 buffer, read-out: minimum inhibitory concentration (MIC). The protocol: as §1
(In agar dilution, organisms are placed on agar that contains the substance at set levels.)

Data set [4] deals with Staphylococcus Aureus A 355. In words: MIC by two-fold agar dilution (brain heart infusion agar), Staphylococcus aureus A 355. The settings on record: strain A 355, 18 hours at 37°C, pH 6.5 buffer, read-out: minimum inhibitory concentration (MIC). The data set is classed as cell-based. The protocol: as §1
Data set [5] deals with Staphylococcus Aureus 2160'. In words: MIC by two-fold agar dilution (brain heart infusion agar), Staphylococcus aureus 2160'. The data set is classed as cell-based. The settings on record: strain 2160', 18 hours at 37°C, pH 6.5 buffer, read-out: minimum inhibitory concentration (MIC). As to the method:
as §1

As to `O=C(O)c1ccc(N2C(=O)[C@@H](Oc3ccccc3)[C@H]2c2ccccc2O)cc1` (relative stereo) [cis-1-(p-carboxyphenyl)-3-phenoxy-4-(o-hydroxyphenyl)azetidin-2-one], the “solubility in various organic solvents” value in data set [1] is listed as “low solubility in various organic solvents”.

With `COc1ccc(C2C(Oc3ccccc3)C(=O)N2c2ccc(C(=O)O)cc2)cc1` (stereo not drawn) [1-(p-carboxyphenyl)-3-phenoxy-4-(p-methoxyphenyl)-azetidin-2-one], the antibacterial activity result with test organisms is on record as “outstanding for their antibacterial activity”.

As to `COc1ccc(N2C(=O)C(Oc3ccccc3)C2c2ccc(C(=O)O)cc2)cc1` (stereo not drawn) [1-(p-methoxyphenyl)-3-phenoxy-4-(p-carboxyphenyl)-azetidin-2-one], the MIC in data set [2], in data set [3], in data set [4] and in data set [5] was 100 mg/mL (≈ 257 mM) throughout. Besides, in the data set on test organisms, the antibacterial activity result is on record as “outstanding for their antibacterial activity”.

Regarding `O=C(O)c1ccc(N2C(=O)C(Oc3ccccc3)C2c2ccco2)cc1` (stereo not drawn) [1-p-carboxyphenyl-3-phenoxy-4-α-furyl-azetidin-2-one], the MIC in data set [2] was 50 mg/mL (≈ 143 mM). Also, the antibacterial activity entry in the data set on test organisms is given as “outstanding for their antibacterial activity”.
